Data as given in patent US8895504B2, “Amylin derivatives” (priority 2008, dated 2014).
*1 amine or outer side, *2 acyl side, *3 side chain or, on linkers, in order; H or OH if unused. Where a SMILES comes first, the peptide text is derived from it. Bridges are numbered along the chain shown (N, C = ends). The star is where a group is joined. C20 diacid = O=C(O)CCCCCCCCCCCCCCCCCCC(=O)*; γGlu = O=C(O)[C@H](CCC(=O)[*:2])N[*:1]

Assays:
[1] = Assay (VI) PK - determination of T½ in rat; format: in vivo; conditions: sc, terminal plasma half-life, subcutaneous, approx 20 nmol/kg, male Sprague Dawley rats
Procedure: Assay (VI) PK—Determination OF T½ in Rat
T½ is the terminal half-life=ln 2/λz of a compound in plasma. λz is the first order rate constant associated with the terminal (log-linear) portion of the plasma concentration-time curve and is estimated by linear regression of time vs. log concentration.
T½ values of the amylin analogues of the invention is determined by pharmacokinetic studies in Sprague Dawley male rats, from Taconic Europe and the principles of laboratory animal care are followed.
An acclimatization period of approximately 7 days was allowed before the animals entered the study. At start of the acclimatization period the rats were in the weight range of 300-400 g. The rats had permanent catheters inserted in a. carotis which were used for blood sampling.
The studies were conducted in an animal room which was illuminated to give a cycle of approx 12 hours light and 12 hours darkness. The animals were housed individually due to the catheters and had food and water ad lib. The animals were weighed on the days of dosing.
In the present studies the test substances were administered subcutaneously in approx 20 nmol/kg dose. The animals received a single subcutaneous injection to the neck using a 25 G needle with syringe. Each test substance was given to typically three but in some cases two or four animals.
A full plasma concentration-time profile, employing 8-10 sampling points, was obtained from each animal. In example blood samples were collected according to the following schedule:
After subcutaneous administration:
Predose (0), 0.5, 1, 1.5, 2, 4, 6, 12, 24, 48 and 72 hours after injection. At each sampling time, 0.08 to 0.10 ml of blood was drawn from each animal. The blood samples were taken via the catheter.
The blood samples were collected into EDTA test tubes. Blood samples were kept on ice for max 20 min. before centrifugation. Plasma was separated using centrifugation (i.e. at 4° C., 10 min., 1500 G) and was immediately transferred to Micronic tubes or PCR plates. Approximately 40 μl plasma was transferred and was stored at −20° C. until assayed. The plasma samples were assayed for the content of amylin using an ELISA assay.
The plasma concentration-time profiles were analysed by a non-compartmental pharmacokinetic analysis (NCA) using WinNonlin Professional 5.0 (Pharsight Inc., Mountain View, Calif., USA). NCA was performed using the individual plasma concentration-time profiles from each animal. T½ is the terminal half-life=ln 2/λz and was determined from λz, the first order rate constant associated with the terminal (log-linear) portion of the curve, estimated by linear regression of time vs. log concentration.
ELISA Plasma Assay for Amylin Quantification
The human amylin ELISA is a monoclonal antibody-based sandwich immunoassay for determining amylin levels in human plasma. The capture antibody recognizes human amylin, amylin acid (deamidated amylin), a 1-20 fragment of amylin, but not reduced amylin. The detection antibody binds to reduced or unreduced human amylin but not amylin acid and is complexed with streptavidin-alkaline phosphatase. The substrate, 4-methylumbelliferyl phosphate, is applied to the completed sandwich and the fluorescent signal, monitored at 355 nm/460 nm, is proportional to the amount of amylin present in the sample.

food intake = assay: Pharmacological Assay (I) - efficacy testing on appetite, ad libitum fed rat model; format: in vivo, Sprague Dawley (SD) rats; conditions: 30 nmol/kg vs vehicle, ad libitum fed rats, n=5-7, 0-48 hours
From the text: Assays Pharmacological Assay (I)—Experimental Protocol for Efficacy Testing on Appetite with an Amylin Derivative, Using an Ad Libitum Fed Rat Model. Sprague Dawley (SD) rats from Taconic Europe, Denmark are used for the experiments. The rats have a body weight 200-250 g at the start of experiment. The rats arrive at least 10-14 days before start of experiment to allow acclimatization to experimental settings. During this period the animals are handled at least 2 times. After arrival rats are housed individually for one week in a reversed light/dark phase (meaning that lights are off during daytime and on during nighttime) for two weeks. Since rats are normally active and eat their major part of their daily food intake during the dark period, rats are dosed in the morning right before lights are turned off. This set-up results in the lowest data variation and highest test sensitivity. The experiment is conducted in the rats' home cages and rats have free access to food and water throughout the acclimatization period and the experiment period. Each dose of derivative is tested in a group of 5-8 rats. A vehicle group of 6-8 rats is included in each set of testing. Rats are dosed once according to body weight with a 0.01-3 mg/kg solution administered intraperitoneally (ip), orally (po) or subcutaneously (sc). The time of dosing is recorded for each group. After dosing, the rats are returned to their home cages, where they then have access to food and water. The food consumption is recorded individually continuously by on-line registration or manually every hour for 7 hours, and then after 24 h and sometimes 48 h. At the end of the experimental session, the animals are euthanized. The individual data are recorded in Microsoft excel sheets. Outliers are excluded after applying the Grubbs statistical evaluation test for outliers, and the result is presented graphically using the GraphPad Prism program.

half-life [1]: 14 h
SMILES: CC[C@H](C)[C@H](NC(=O)[C@@H]1CCCN1C(=O)CNC(=O)[C@H](Cc1ccccc1)NC(=O)[C@H](CC(N)=O)NC(=O)[C@H](CC(N)=O)NC(=O)[C@H](CO)NC(=O)[C@H](CO)NC(=O)[C@H](Cc1c[nH]cn1)NC(=O)[C@H](Cc1c[nH]cn1)NC(=O)[C@H](CC(C)C)NC(=O)[C@H](Cc1ccccc1)NC(=O)[C@H](CC(N)=O)NC(=O)[C@H](C)NC(=O)[C@H](CC(C)C)NC(=O)[C@H](CCCNC(=N)N)NC(=O)[C@H](CCC(N)=O)NC(=O)[C@@H](NC(=O)[C@H](C)NC(=O)[C@@H]1CSSC[C@H](NC(=O)[C@H](Cc2c[nH]cn2)NC(=O)[C@H](Cc2c[nH]cn2)NC(=O)[C@H](Cc2c[nH]cn2)NC(=O)CC[C@H](NC(=O)CCCCCCCCCCCCCCCCCCC(=O)O)C(=O)O)C(=O)N[C@@H](CC(N)=O)C(=O)N[C@@H]([C@@H](C)O)C(=O)N[C@@H](C)C(=O)N[C@@H]([C@@H](C)O)C(=O)N1)[C@@H](C)O)C(=O)N[C@@H](CC(C)C)C(=O)N1CCC[C@H]1C(=O)N1CCC[C@H]1C(=O)N[C@H](C(=O)N[C@@H](CC(N)=O)C(=O)N[C@H](C(=O)NCC(=O)N[C@@H](CO)C(=O)N[C@@H](CC(N)=O)C(=O)N[C@H](C(=O)N[C@@H](Cc1ccc(O)cc1)C(N)=O)[C@@H](C)O)C(C)C)[C@@H](C)O [Example 39, N-alpha-[(S)-4-Carboxy-4-(19-carboxynonadecanoylamino)butyryl]-His-His-[His1,His17]-pramlintide] ({C20 diacid-γGlu}-HHHCNTATCATQRLANFLHHSSNNFGPILPPTNVGSNTY-NH2; disulfide 4-9)
food intake over a period of 48 hours (food intake): effectively reducing food intake
